{
  "source": "patent US20240374626A1",
  "about": "“METHODS OF ENHANCING MILK PRODUCTION IN LACTATING MAMMALIAN SUBJECTS” (priority 2023, published 2024)",
  "key": {"Wee1": {"test_system": "Wee1", "test": "Contralateral intraductal injection: Wee1 expression in whole MG tissue by RT-qPCR", "assay_type": "in vivo, mouse", "settings": "IDI of doxorubicin into pregnant MG vs contralateral DMSO", "description": "Nulliparous analysis was performed using adult (10-12-week-old) female mice. For timed pregnancies and lactation analysis, CD-1 pregnant adult females were obtained from Charles Rivers. Embryos were examined at the time of mammary gland harvesting to confirm pregnancy state. […] Plugged mice were considered to be PD0.5 on the day of the observed plug. All females used in this study were age matched.\nMice were anesthetized with isoflurane (VetOne, 501017) Prior to intraductal injections, hair was removed from around the nipples using Nair hair remover. Injections into the duct of the nipple were performed with 33 G needles (Hamilton, 7803-05) and a volume of 40 μl per gland. […]\nFor RNA isolation from FACS purified populations, mammary gland cell suspensions were blocked using Mouse BD Fc Block™ (BD Biosciences) for 10 min. […] Total RNA quality was analyzed by agarose gel electrophoresis and quantified using an ND-1000 spectrophotometer (NanoDrop). cDNA was prepared from 500-1000 ng of total RNA using iScript cDNA synthesis kit (Bio-Rad, 1708841). Quantitative RT-qPCR was performed in triplicates using SsoAdvanced Universal SYBR Green Supermix, (Bio-Rad, 1725272). […]"}, "HC11 cells": {"test_system": "HC11 cells", "test": "Visualization of FACS-purified HC11 subpopulations sorted on DNA content (nuclei number)", "assay_type": "cell-based, mouse", "settings": "HC11, doxorubicin 50 nM, FACS-purified population", "description": "[…] Drugs were maintained through the differentiation process and added with every change of media.\nMammary gland CK8+ epithelial cells or HC11 were sorted based on DNA content using BD FACS Aria II Cell Sorter. After sorting, cells were stained in suspension using Phalloidin-iFluor 488 Reagent (Abcam, ab176753) for 30 min at room temperature in darkness. Cells were spined down onto microscopy slides (Fisher, 12-550-15) using Cytospin 2 (Shandon, 599X52) at 500 rpm for 3 min. Cells were mounted using fluoromount-G (Southern Biotech, 0100-01) and visualized using Zeiss Axio Imager Microscope."}},
  "data": [
    {"smiles": "COc1cccc2c1C(=O)c1c(O)c3c(c(O)c1C2=O)C[C@@](O)(C(=O)CO)C[C@@H]3O[C@H]1C[C@H](N)[C@H](O)[C@H](C)O1", "note": "[doxorubicin]", "values": [
      {"measurement": "Wee1 expression in whole MG tissue, RT-qPCR", "setting": "Wee1", "result": "upregulated"},
      {"measurement": "nuclei number of polyploid cells generated", "setting": "HC11 cells", "result": "generated both mono- and binucleated polyploid cells"}
    ]}
  ]
}
